Reference: ChEMBL document CHEMBL4673282, “Identification of a New Heterocyclic Scaffold for Inhibitors of the Polo-Box Domain of Polo-like Kinase 1” (J Med Chem, 2020)
In brackets after ≈: the same amount, converted by molar mass.

Experiments:
[1] = Aqueous solubility of compound; assay type: physicochemical; conditions: buffer
[2] = Half life in rat liver microsomes at 1 uM measured up to 60 mins in presence of NADPH generating system; conditions: 1 h
in vitro = conditions: PAMPA
Description: Permeability of the compound by PAMPA

SMILES	solubility [1]	t1/2 [2] [min]	Papp (in vitro) [×10⁻⁶ cm/s]
CCOP(=O)(CCn1c(=O)c2cc(F)ccc2n2c(=S)[nH]nc12)OCC	> 59 µg/mL	> 30	
CN1CCN(CCn2c(=O)c3cc(F)ccc3n3c(=S)[nH]nc23)CC1	> 54 µg/mL	> 30	
O=C(CC1CCNCC1)NCCCn1c(=O)c2cc(F)ccc2n2c(=S)[nH]nc12	37.5 µg/mL (≈ 89.6 µM)	> 30	
O=C(Cc1cccc(C(F)(F)F)c1)NCCCn1c(=O)c2cc(F)ccc2n2c(=S)[nH]nc12		17.3	
O=c1c2cc(F)ccc2n2c(=S)[nH]nc2n1Cc1ccccc1	8.3 µg/mL (≈ 25.4 µM)	> 30	841
CCn1c(=O)c2cc(F)ccc2n2c(=S)[nH]nc12	> 39 µg/mL	> 30	
CCCn1c(=O)c2ccccc2n2c(=S)n(CN(C)C3CC3)nc12	Insoluble		
O=C(NCCCn1c(=O)c2cc(F)ccc2n2c(=S)[nH]nc12)C1CCOCC1	< 1 µg/mL		8
O=C(Cc1ccncc1)NCCCn1c(=O)c2cc(F)ccc2n2c(=S)[nH]nc12		> 30	< 1
CS(=O)(=O)NCCCn1c(=O)c2cc(F)ccc2n2c(=S)[nH]nc12	34 µg/mL (≈ 91.5 µM)	> 30	
CC(C)(C)OC(=O)CC[C@H](N)C(=O)NCCCn1c(=O)c2cc(F)ccc2n2c(=S)[nH]nc12	37.5 µg/mL (≈ 78.4 µM)	> 30	
O=C(Cc1ccccc1C(F)(F)F)NCCCn1c(=O)c2cc(F)ccc2n2c(=S)[nH]nc12		3.7	
COc1ccc(CC(=O)NCCCn2c(=O)c3cc(F)ccc3n3c(=S)[nH]nc23)cc1		> 30	
O=c1c2ccccc2n2c(=O)[nH]nc2n1CCc1ccccc1	< 1 µg/mL		
CC(C)CNC(=O)CCn1c(=O)c2ccccc2n2c(=S)[nH]nc12	30.8 µg/mL (≈ 89.2 µM)		
O=C(NCCCn1c(=O)c2cc(F)ccc2n2c(=S)[nH]nc12)C1CCCCN1 (racemic)	> 60 µg/mL	> 30	
O=c1c2cc(F)ccc2n2c(=S)[nH]nc2n1CCc1ccccc1Cl	3 µg/mL (≈ 8 µM)	22.8	
O=c1c2cc(F)ccc2n2c(=S)[nH]nc2n1CCCc1ccccc1	< 1 µg/mL	8.8	
O=c1c2ncccc2n2c(=S)[nH]nc2n1CCc1ccccc1	26.9 µg/mL (≈ 83.2 µM)	> 30	
CC(C)(C)OC(=O)NCCOCCOCCOCCC(=O)NCCCn1c(=O)c2cc(F)ccc2n2c(=S)[nH]nc12	> 88 µg/mL	27.9	
NCCn1c(=O)c2cc(F)ccc2n2c(=S)[nH]nc12	> 41 µg/mL	> 30	
O=C(Cc1ccccn1)NCCCn1c(=O)c2cc(F)ccc2n2c(=S)[nH]nc12		> 30	

SMILES	solubility [1]	t1/2 [2] [min]	Papp (in vitro) [×10⁻⁶ cm/s]
N#Cc1ccccc1CC(=O)NCCCn1c(=O)c2cc(F)ccc2n2c(=S)[nH]nc12		> 30	
N#Cc1ccc(CC(=O)NCCCn2c(=O)c3cc(F)ccc3n3c(=S)[nH]nc23)cc1		> 30	
CS(=O)(=O)NCCn1c(=O)c2cc(F)ccc2n2c(=S)[nH]nc12	> 53 µg/mL	> 30	
NC1CCC(C(=O)NCCCn2c(=O)c3cc(F)ccc3n3c(=S)[nH]nc23)CC1 (racemic)	38.8 µg/mL (≈ 92.7 µM)	> 30	
CCCn1c(=O)c2cc(F)ccc2n2c(=S)[nH]nc12	> 28 µg/mL	> 30	
O=C(Cc1ccc(F)cc1)NCCCn1c(=O)c2cc(F)ccc2n2c(=S)[nH]nc12		26.3	
Cc1nnc2n(CCc3ccccc3)c(=O)c3cc(F)ccc3n12	11 µg/mL (≈ 34.1 µM)	10.7	
O=c1c2cc(F)ccc2n2c(=S)[nH]nc2n1CCc1ccncc1	10.9 µg/mL (≈ 31.9 µM)	> 30	
CC(C)(C)OC(=O)N1CC(CCn2c(=O)c3cc(F)ccc3n3c(=S)[nH]nc23)C1	15 µg/mL (≈ 35.8 µM)		229
O=C(Cc1cccc(F)c1)NCCCn1c(=O)c2cc(F)ccc2n2c(=S)[nH]nc12	> 63 µg/mL	26.5	
CC(C)(C)OC(=O)CC[C@H](N)C(=O)NCCOCCOCCOCCOCCC(=O)NCCCn1c(=O)c2cc(F)ccc2n2c(=S)[nH]nc12	> 107 µg/mL	> 30	
CN1CCCC1CCn1c(=O)c2cc(F)ccc2n2c(=S)[nH]nc12 (racemic)	17.8 µg/mL (≈ 51.2 µM)	> 30	
N[C@@H](CCC(=O)O)C(=O)NCCCn1c(=O)c2cc(F)ccc2n2c(=S)[nH]nc12	32 µg/mL (≈ 75.8 µM)	> 30	
NCCOCCOCCOCCC(=O)NCCCn1c(=O)c2cc(F)ccc2n2c(=S)[nH]nc12	36.1 µg/mL (≈ 72.7 µM)	> 30	
CC(C)NC(=O)CCn1c(=O)c2cc(Cl)ccc2n2c(=S)[nH]nc12	8.1 µg/mL (≈ 22.1 µM)		
CC(C)(C)OC(=O)CC[C@H](NC(=O)OC(C)(C)C)C(=O)NCCCn1c(=O)c2cc(F)ccc2n2c(=S)[nH]nc12	41.6 µg/mL (≈ 71.9 µM)	3.8	
CC(C)OCCCn1c(=O)c2cc(Cl)ccc2n2c(=S)[nH]nc12	8.6 µg/mL (≈ 24.4 µM)		
CCCn1c(=O)c2ccccc2n2c(=S)n(CN(CC)CC3CC3)nc12	8.7 µg/mL (≈ 23.4 µM)		
O=c1c2cc(F)ccc2n2c(=S)[nH]nc2n1CCP(=O)(O)O	> 51 µg/mL		
O=C(Cc1cccc(Cl)c1)NCCCn1c(=O)c2cc(F)ccc2n2c(=S)[nH]nc12	> 66 µg/mL	8.4	
O=C(Cc1cccnc1)NCCCn1c(=O)c2cc(F)ccc2n2c(=S)[nH]nc12		> 30	
CC(C)(C)OC(=O)N1CCN(CCn2c(=O)c3cc(F)ccc3n3c(=S)[nH]nc23)CC1	20.5 µg/mL (≈ 45.7 µM)	26.3	

SMILES	solubility [1]	t1/2 [2] [min]	Papp (in vitro) [×10⁻⁶ cm/s]
CC(C)(C)[C@H]1CC[C@H](C(=O)NCCCn2c(=O)c3cc(F)ccc3n3c(=S)[nH]nc23)CC1	1.1 µg/mL (≈ 2.39 µM)	> 30	
O=C(Cc1ccccc1)NCCCn1c(=O)c2cc(F)ccc2n2c(=S)[nH]nc12		18.7	
O=C(Cc1ccc(O)cc1)NCCCn1c(=O)c2cc(F)ccc2n2c(=S)[nH]nc12		> 30	
O=c1c2cc(I)ccc2n2c(=S)[nH]nc2n1CCc1ccccc1	< 1 µg/mL	> 30	
O=C(NCCCn1c(=O)c2cc(F)ccc2n2c(=S)[nH]nc12)C1CCCNC1 (racemic)	29.6 µg/mL (≈ 73.2 µM)	> 30	
CC(C)(C)OC(=O)CC[C@@H](NC(=O)OC(C)(C)C)C(=O)NCCCn1c(=O)c2cc(F)ccc2n2c(=S)[nH]nc12	20.4 µg/mL (≈ 35.3 µM)	25.1	
O=c1c2cccnc2n2c(=S)[nH]nc2n1CCc1ccccc1	4.9 µg/mL (≈ 15.2 µM)	> 30	
O=c1c2cc(F)ccc2n2c(=S)[nH]nc2n1CCc1ccccc1		> 30	77
O=C(NCCCn1c(=O)c2cc(F)ccc2n2c(=S)[nH]nc12)c1ccc(Cn2ccnc2)cc1		> 30	
NCCCn1c(=O)c2cccc(F)c2n2c(=S)[nH]nc12		> 30	
O=C(Cc1ccc(Br)cc1)NCCCn1c(=O)c2cc(F)ccc2n2c(=S)[nH]nc12	< 1 µg/mL	20.6	
COc1ccccc1CC(=O)NCCCn1c(=O)c2cc(F)ccc2n2c(=S)[nH]nc12	> 65 µg/mL	16.1	
N[C@@H](CCC(=O)O)C(=O)NCCOCCOCCOCCOCCC(=O)NCCCn1c(=O)c2cc(F)ccc2n2c(=S)[nH]nc12	> 99 µg/mL	> 30	
CCCn1c(=O)c2ccccc2n2c(=S)[nH]nc12		> 30	
O=C(NCCCn1c(=O)c2cc(F)ccc2n2c(=S)[nH]nc12)C1CCNCC1	> 60 µg/mL	> 30	
NCCCCCC(=O)NCCCn1c(=O)c2cc(F)ccc2n2c(=S)[nH]nc12	31.8 µg/mL (≈ 78.2 µM)	> 30	
CC(C)(C)OC(=O)Nc1ccc(CC(=O)NCCCn2c(=O)c3cc(F)ccc3n3c(=S)[nH]nc23)cc1		> 30	
Cc1ccc(CC(=O)NCCCn2c(=O)c3cc(F)ccc3n3c(=S)[nH]nc23)cc1		23.9	
CC(C)n1c(=O)c2ccccc2n2c(=S)[nH]nc12	19.5 µg/mL (≈ 74.9 µM)		
O=c1c2cc(N3CCOCC3)ccc2n2c(=S)[nH]nc2n1CCc1ccccc1	3.4 µg/mL (≈ 8.34 µM)	> 30	
Cc1ccc2c(c1)c(=O)n(CCc1ccccc1)c1n[nH]c(=S)n21	< 1 µg/mL	> 30	
CC(=O)NCCn1c(=O)c2cc(F)ccc2n2c(=S)[nH]nc12	> 47 µg/mL	> 30	
